From patent US9072301B2 (priority 2012, dated 2015) come the findings set out here.

The melting point is the temperature of the solid-liquid transition.

`CC1OC(=O)c2ncnc(NCCc3ccc(Oc4ccnc(C(F)(F)F)c4)cc3F)c21` (centres unmarked) showed a melting point of 159 °C.

As to `COc1cc(CCNc2ncnc3cnn(C)c23)ccc1Oc1ccnc(C(F)(F)F)c1` [I-10, N-[2-[3-methoxy-4-[[2-(trifluoromethyl)-4-pyridyl]oxy]phenyl]ethyl]-1-methyl-pyrazolo[4,3-d]pyrimidin-7-amine], the melting point came to 178 °C.
